Data as given in patent EP4458353A1, “ANTICARIOGENIC SYNERGETIC COMPOSITION FOR ORAL CARE” (SkyLab AG, priority 2023, dated 2024).
≈ marks a conversion by molar mass, not a printed value. Like-named read-outs stand apart in the source and are kept apart here.

Experiments:
[1] = test system: Streptococcus sobrinus; test: Minimum inhibitory concentration (MIC), serial two-fold dilution with resazurin test; assay type: cell-based; details: Streptococcus sobrinus, S. sobrinus
[2] = target: T1, lysozyme (Gallus gallus, UniProt P00698); test: Lysozyme and naringenin compatibility: lysozyme activity by fall of optical density of Micrococcus lysodeicticus cells; assay type: biochemical; details: added to the buffered medium with lysozyme; 30, 60, 120 minutes at 37 degrees
T1 construct: Lysozyme used in all tests was 99% anhydrous lysozyme hydrochloride isolated from the egg yolks; from tissue; host or cells: eggs ('egg yolks' as printed)
T1 sequence (P00698 19-147): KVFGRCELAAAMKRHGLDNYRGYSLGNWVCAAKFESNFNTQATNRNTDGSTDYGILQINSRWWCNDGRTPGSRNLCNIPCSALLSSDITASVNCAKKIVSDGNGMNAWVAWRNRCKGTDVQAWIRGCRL
Experimental: Example ? 8. Assessment of lysozyme and naringenin compatibility Potential impact of naringenin on lysozyme activity was assessed through the measurement of lysozyme activity by the method described in the patent RU2294373C2. To determine the lysozyme activity the optical density values obtained for the control wells are subtracted from the optical density values obtained for the wells, which were incubated in the presence of lysozyme. The bacterial cells Micrococcus lysodeicticus in amount corresponding to the optical density 0.6 are mixed with the equal volume of buffer containing lysozyme, naringenin, guava leaf CO2 extract, while no lysozyme is added into the control well. Then the plate is incubated for 30, 60, 120 minutes at 37 degrees, and the optical density is measured. The fall of optical density indicates the lysozyme activity. Then the final density value is subtracted from the initial density value followed by normalization for incubation time and the enzyme concentration in accordance with the procedure described in RU2294373C2.

[3] = test system: Streptococcus mutans; test: Minimum inhibitory concentration (MIC), serial two-fold dilution with resazurin test; assay type: cell-based; details: Streptococcus mutans, S. mutans
[4] = test system: Streptococcus mutans; test: Minimum biofilm inhibitory concentration (MBIC), crystal violet staining; assay type: cell-based; details: S. mutans
Experimental: (§1) Group of examples No 4 - 6. Anti-biofilm activity of the substance or of the composition of substances was assessed from minimum biofilm inhibitory concentration (MBIC) and from the rate of biofilm formation on hydroxyapatite disks.
(§2) Reference strains Streptococcus mutans and S. Sobrinus were used as the bacterial models.
(§3) Example No 4. MBIC as the measure of the substance effect on the bacterial biofilm is equal to minimum concentration inhibiting the biofilm formation or disruption of already formed biofilm during 24 hour incubation.
(§4) MBIC of individual components of the composition, specifically, naringenin, guava leaf CO2 extract, and enzymes lysozyme and labiase can be determined according to the procedure: • 1) All stages of nutritive medium preparation, preparation and incubation of bacterial cultures in 96-well microtiter plates with the test composition of the substances added into nutritive medium were as described in Example 1. • 2) All controls for the culture growth, for purity of nutritive medium and for solvents were as described in Example 1. • 3) Incubate the plates at 37 °C for 24 ± 4 h without the use the orbital shaker. • 4) Stain the bacterial biofilm accumulated on bottom of the plate wells with crystal violet. For this purpose remove the planktonic culture from the plate wells after 24 h incubation and wash with two portions of phosphate-buffered saline (PBS, pH 7.4) to remove remaining planktonic culture. Then dry the plate for 12-15 hours. Add 100 µL of 0.5% crystal violet solution (Sigma-Aldrich, USA), dissolved in 96% ethanol followed by incubation for 20 minutes. After removal of crystal violet solution from the wells wash the plate with 3-4 portions of PBS. After drying add […] of 96% ethanol into the wells to elute the crystal violet, which has bound to the biofilm. • 5) Shake the plate on the orbital shaker for 2 minutes at 37 °C and then measure optical density (OD) at the wavelength of 550nm using multimodal microplate reader against the blank (the well, where the sterile medium LB was incubated and then exposed to all staining manipulations). Since the serial dilution method with 2-fold dilution steps is used for MBIC determination, the difference between the adjacent dilution is considered as non-significant, and MBIC is defined as the median value calculated for 5 independent biological replicates of the experiment. • 6) The following concentrations were tested: naringenin and guava leaf extract at concentrations 1.6, 0.8, 0.4, 0.2, 0.1, 0.05 mg/mL; lysozyme and labiase at concentrations 4.0, 2.0, 1.0, 0.5, 0.25, 0.125 mg/mL. Well-known antibacterial components were used as controls: chlorohexidine bigluconate at concentrations 64, 32, 16, 8, 4 µg/mL; zinc gluconate at concetrations 5.0, 2.5, 1.25, 0.6, 0.3, 0.15 mg/mL.

[5] = test system: Streptococcus sobrinus; test: as above; assay type: cell-based; details: S. sobrinus
Experimental: as §1, §2, §3, §4

[6] = 24 h at 37 °C, read-out: MIC value in individual replicate Replicate 1
[7] = 24 h at 37 °C, read-out: MIC value in individual replicate Replicate 2
[8] = 24 h at 37 °C, read-out: MIC value in individual replicate Replicate 3
[9] = 24 h at 37 °C, read-out: MIC value in individual replicate Replicate 4
[10] = 24 h at 37 °C, read-out: MIC value in individual replicate Replicate 5
[11] = median of 5 replicates, read-out: MIC Median value

MIC [1, 6]: > 1600 µg/mL | MIC [1, 7]: > 1600 µg/mL | MIC [1, 8]: > 1600 µg/mL | MIC [1, 9]: > 1600 µg/mL | MIC [1, 10]: > 1600 µg/mL | MIC [1, 11]: > 1600 µg/mL | MIC [3, 6]: > 1600 µg/mL | MIC [3, 7]: > 1600 µg/mL | MIC [3, 8]: 800 µg/mL (≈ 2.94 mM) | MIC [3, 9]: 400 µg/mL (≈ 1.47 mM) | MIC [3, 10]: 800 µg/mL (≈ 2.94 mM) | MIC [3, 11]: 800 µg/mL (≈ 2.94 mM)
SMILES: O=C1C[C@@H](c2ccc(O)cc2)Oc2cc(O)cc(O)c21 [Naringenin, naringenin]
effect on lysozyme activity [2]: neither affect lysozyme nor decrease the lysozyme activity | MBIC in indicvdual replicates Replicate 1 ([4]; 24 h incubation): 0.8 mg/mL | MBIC in indicvdual replicates Replicate 2 ([4]; 24 h incubation): 0.8 mg/mL | MBIC in indicvdual replicates Replicate 3 ([4]; 24 h incubation): 0.8 mg/mL | MBIC in indicvdual replicates Replicate 4 ([4]; 24 h incubation): 0.4 mg/mL | MBIC in indicvdual replicates Replicate 5 ([4]; 24 h incubation): 0.8 mg/mL | MBIC Median value ([4]; median of 5 replicates): 0.8 mg/mL | MBIC in indicvdual replicates Replicate 1 ([5]; 24 h incubation): >1.6 mg/mL | MBIC in indicvdual replicates Replicate 2 ([5]; 24 h incubation): >1.6 mg/mL | MBIC in indicvdual replicates Replicate 3 ([5]; 24 h incubation): >1.6 mg/mL | MBIC in indicvdual replicates Replicate 4 ([5]; 24 h incubation): >1.6 mg/mL | MBIC in indicvdual replicates Replicate 5 ([5]; 24 h incubation): >1.6 mg/mL | MBIC Median value ([5]; median of 5 replicates): >1.6 mg/mL
